pIC50: −log10 of the molar value.
Assays:
[1] = biological target: T1, interaction between Supt4h and NGN (subunit of Supt5h) (Homo sapiens, UniProt O00267+P63272); assay: Split Gaussia luciferase complementation assay (M2-8 Luciferase); assay type: cell-based; settings: M2-8 cells
T1 construct: expressed in transfected cells
Outline: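 HEK293-derived M2-8 cells inducibly express Supt4h-Gluc1 and NGN-Gluc2 fragments (stabilizing mutations) on RheoSwitch ligand addition; ligand plus compound added 24 h after plating and left 24 h. Cells frozen, lysed with 10 μg/ml native coelenterazine, 1 h room temperature dark; complemented luciferase luminescence read.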

[2] = tested on: M2-8 cells; assay: M2-8 Cell viability Assay; assay type: cell-based; settings: at the concentration of 1000 nM
[3] = tested on: mutant HTT; assay: Mutant HTT assay in lymphoblastoid cells (LBC), Western blot; assay type: cell-based, human; settings: read-out: LBC IC20 (nM) mHTT, 3 days compound treatment
Outline: (§1)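 HD patient lymphoblastoid cells (GM14044, 250 CAG repeats in mutant allele) treated with compound for 3 days. Lysates normalised by BCA, run on SDS-PAGE and immunoblotted: mutant HTT with anti-polyQ MW1, wild-type HTT with anti-Huntingtin antibody, TBP and tubulin also probed. Band intensities quantified by infrared imaging.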

[4] = tested on: wild-type HTT; assay: Wild-type HTT assay in lymphoblastoid cells (LBC), Western blot; assay type: cell-based, human; settings: 3 days compound treatment, read-out: LBC IC20 (nM) wtHTT
Outline: as §1

[5] = tested on: mutant HTT; assay: Mutant HTT assay in induced pluripotent stem cells (iPSC); assay type: cell-based, human; settings: HD patient iPSCs, one day incubation, read-out: iPSC IC20 (nM) mHTT
Outline: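 Huntington's disease patient iPSCs (ND50036) plated at 7,000 cells/well, compound-treated after 48 h for one day in mTeSR1. Lysates normalised by BCA protein, then mutant HTT measured by sandwich ELISA: anti-human HTT capture, biotinylated mutant-HTT-specific detection, streptavidin-HRP/TMB colorimetric readout, interpolated from a standard curve.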

[6] = tested on: Gmr::HTT97Q fly (mutant HTT, rough eye); assay: HD-Drosophila phenotypic assay (rough eye analysis); assay type: in vivo, Drosophila melanogaster; settings: Gmr-HTT97Q flies, compound 10 μM in media
Description: D. Alleviation of Neuron Degeneration Phenotypes of Mutant HTT in Drosophila HD Models
The Drosophila melanogaster (fruit fly) HD models carry the coding sequence of human HTT exon1 with 97 CAG repeats to mimic mutant HTT of Huntington's disease (HD). The Gmr::HTT97Q fly, expressing mutant HTT primarily in the neurons of Drosophila compound eyes, has a severe degeneration of photoreceptor neurons and the phenotypic trait ‘rough eye’. All of the fly stocks and genetics crosses are maintained at 25° C. on standard cornmeal yeast agar media.
b. Eye Morphology (Rough Eye) Analysis
Fifteen adult male flies (Gmr-HTT97Q/Gmr-HTT97Q or Gmr/Gmr) are crossed with 15 virgin female flies W1118(+/+) in a vial containing standard yeast agar media with the compound in a concentration of 10 μM. Parent-flies are removed from vials at day 7, followed by a collection of newly hatched flies for ‘rough eye’ analysis. The morphology of compound eyes is captured using a Leica DMR upright microscope equipped with a digital camera (CoolSNAP 5.0, Photometrics). To increase the depth of field, imaging software is used to create montage composite images (Helicon Focus, HeliconSoft). A total of 10 flies are collected for analysis in each individual condition, and the biological experiment is conducted three times. DMSO, the reagent solvent of the compound, is included as a control.

[7] = tested on: Lymphoblastoid cells (GM14044); assay: LBC cell viability (Cell Titer-Glo); assay type: cell-based, human; settings: at the concentration of IC20, 3-day compound treatment
Protocol: Cell viability was determined by Cell Titer-Glo reagent (Promega, PRG9243). After 3-day compound treatment, 15 μl of cell suspension was taken out from plate and incubated with 10 μl of CTG reagent. The values of reaction mixture were detected by Tecan.

[8] = tested on: Huntington's disease patient iPSCs (ND50036); assay: iPSC viability at IC20; assay type: cell-based, human; settings: at the concentration of IC20
[9] = tested on: mouse hepatocytes; assay: In vitro metabolic stability in mouse hepatocytes; assay type: in vitro ADME
Protocol: A. In Vitro Metabolic Stability in Hepatocyte
A compound's metabolic stability was assessed using mouse hepatocytes incubated with pre-defined concentration of test articles over several incubation period. The extent of metabolism was calculated from the disappearance of the test compound measured by liquid chromatography mass spectrometry (LC-MS), compared to that of 0-min control. After incubation, quench solutions including internal standards were added and analyzed by LC/MS. The elimination rate constant and intrinsic clearance (CLhepatocyte) values were calculated by linear regression of the compound elimination over the duration of incubation, normalized to the cell number in the given volume of incubation medium.

SMILES | pIC50 [1] | M2-8 Cell viability [2] | IC20 [3] | IC20 [4] | IC20 ([5]; numeric bounds) | HD-Drosophila Phenotypic assay (rescue of rough eye phenotype) [6] | LBC viability at IC20 [7] | IC20 ([5]; class symbols) | iPSC viability at IC20 [8] | Mouse HepStability (CLhepatocyte) [9]
OCc1ccc(CN[C@H]2CCCc3c2[nH]c2ccc(Br)cc32)cc1 [Compound 3] | < 6.00 | + (cell viability is greater than 50% at the concentration of 1000 nM) | > 1000 nM | > 1000 nM | > 100 nM | @ (rough eye phenotype of HD flies is rescued by testing compound less than 40%) | – | – | – | –
OB(O)c1ccc(CN[C@@H]2CCCc3c2[nH]c2ccc(Br)cc32)cc1 [Compound 38, (R)-(4-(((6-bromo-2,3,4,9-tetrahydro-1H-carbazol-1-yl)amino)methyl)phenyl)boronic acid] | ≥ 7.00 | + (cell viability is greater than 50% at the concentration of 1000 nM) | 101 to 300 nM | > 1000 nM | – | – | * (cell viability is greater than 60% at the concentration of IC20) | < 100 nM | + (cell viability is greater than 75% at the concentration of IC20) | C (CLhepatocyte >30 μl/min/10^6cells)
